Test results taken from US8871463B2, “Method for screening a glutamate release inhibitor in an astrocyte” (Korea Institute of Science and Technology, priority 2012, dated 2014).
Entries after “also recorded” stand apart in the source; their conditions may differ.

What was measured:
[1] = target: Best1 channel (Mus musculus, UniProt O88870); assay type: cell-based
[2] = system: primary cultured astrocyte; assay type: cell-based, mouse
[3] = target: GluR1-L497Y (Homo sapiens, UniProt P42261, L497Y); assay type: cell-based
[4] = target: T1, Best1 channel (Mus musculus, UniProt O88870); settings: intracellular Ca2+; read-out: EC50 of activation of Best1 channel; cited from earlier work
T1 sequence (O88870 1-551): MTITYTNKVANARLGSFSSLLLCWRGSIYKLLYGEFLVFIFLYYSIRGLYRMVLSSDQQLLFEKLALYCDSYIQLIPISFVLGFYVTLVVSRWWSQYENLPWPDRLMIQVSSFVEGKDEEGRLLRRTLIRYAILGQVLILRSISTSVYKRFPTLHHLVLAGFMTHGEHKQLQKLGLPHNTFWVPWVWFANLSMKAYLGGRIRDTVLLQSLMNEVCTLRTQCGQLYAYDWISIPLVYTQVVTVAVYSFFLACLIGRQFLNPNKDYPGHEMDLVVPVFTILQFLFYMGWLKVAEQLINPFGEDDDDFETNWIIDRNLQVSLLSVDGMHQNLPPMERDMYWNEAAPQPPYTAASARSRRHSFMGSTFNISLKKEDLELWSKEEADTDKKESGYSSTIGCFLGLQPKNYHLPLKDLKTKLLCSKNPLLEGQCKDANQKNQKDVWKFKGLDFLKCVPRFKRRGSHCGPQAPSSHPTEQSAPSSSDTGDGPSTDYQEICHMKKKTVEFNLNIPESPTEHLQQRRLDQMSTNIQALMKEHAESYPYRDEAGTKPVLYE

[5] = target: T2, mouse TREK-1 (Mus musculus, UniProt P97438); assay: TREK-1-mediated whole-cell current in COS-7 cells; assay type: cell-based; settings: COS-7 cell expressing TREK-1; voltage ramp
T2 construct: expressed in transfected cells; host or cells: COS-7
T2 sequence (P97438 1-426): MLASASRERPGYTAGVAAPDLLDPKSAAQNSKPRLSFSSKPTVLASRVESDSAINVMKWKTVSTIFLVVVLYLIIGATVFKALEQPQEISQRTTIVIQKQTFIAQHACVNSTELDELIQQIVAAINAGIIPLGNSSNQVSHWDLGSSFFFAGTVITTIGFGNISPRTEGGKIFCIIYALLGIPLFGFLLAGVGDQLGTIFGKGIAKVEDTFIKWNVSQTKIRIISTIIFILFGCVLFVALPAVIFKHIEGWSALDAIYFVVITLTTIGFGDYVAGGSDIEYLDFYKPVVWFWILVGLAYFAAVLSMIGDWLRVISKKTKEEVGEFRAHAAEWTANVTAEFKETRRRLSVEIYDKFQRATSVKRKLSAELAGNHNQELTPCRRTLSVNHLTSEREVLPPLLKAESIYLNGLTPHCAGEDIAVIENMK
Protocol: (§1) Current-voltage (I-V) curves were recorded from COS-7 expressing TREK-1. I-V curves were established by applying 1000-ms-duration voltage ramps from +70 to −100 mV. Data were acquired by an Axopatch 200A amplifier controlled by Clampex 9.2 via Digidata 1322A data acquisition system (Molecular Devices). Internal solution contained the following (in mM: 150 KCl, 5 EGTA, 10 HEPES, 0.5 CaCl2, 1 MgCl2, pH 7.3, 280 osm). Bath solution contains the following (in mM: 150 NaCl, 10 HEPES, 3 KCl, 2 CaCl2, 2MgCl2, and 5.5 glucose, pH 7.3). The pipette solution for observing Ca^2+ activated Cl^− current (Best1 channel current) whole-cell patch clamp in astrocytes contained the following (in mM: 135 NMDG-Cl, 5 MgCl2, 5 (Ca^2+)-EGTA-N-methyl-D-glucamine (NMDG), 10 HEPES, and 10 glucose, pH 7.3, adjusted with NMDG). We used Ca^2+-free intracellular solution composed of the following (in mM: 135 NMDG-Cl, 5 EGTA-NMDG, 2 MgCl2, 8 HEPES, and 10 sucrose, pH 7.3, adjusted with NMDG). I-V curves were established by applying 1000-ms-duration voltage ramps from +100 to −100 mV.

[6] = system: astrocyte; assay type: cell-based, mouse
[7] = system: TREK-1; assay: Two-cell sniffer patch: Gβγ-induced glutamate release from astrocyte; assay type: cell-based, mouse; settings: 6.09 nM Gβγ, 5 mM glutamate in pipette; peptides 100 μM
Protocol: On the day of sniffer-patch, cultured astrocytes (HEK cells added) were transferred to a microscope stage for imaging. External solution contained (in mM): 150 NaCl, 10 Hepes, 3 KCl, 2 CaCl2, 2 MgCl2, 5.5 glucose, pH adjusted to pH 7.3 and osmolarity to 325 mOsmol kg* Rupture current were recorded from astrocyte under voltage (Vh=−70 mV) using Multiclamp 700B amplifier (Molecular Devices), acquired with pClamp 9.2. Recording electrodes (4-7MΩ) were filled with (mM): 5 glutamate, 135 CsCl, 0.5 CaCl2, 10 Hepes, 4 Mg-ATP, 0.3 Na3-GTP, 10 BAPTA and 6.09 nM Gβγ (pH adjusted to 7.3 with CsOH and osmolarity adjusted to 290-310 mOsm/kg with sucrose). In the case of gene silencing, transfection method is the same as simultaneous recording for sniffer patch. In competition assay, 100 μM N1-N4 synthesized peptides were added to pipette for recording astrocyte. GluR1LY-mediated currents were recorded from HEK cells expressing GluR1-L497Y under voltage clamp (Vh=−70 mV) using Multiclamp 700B amplifier (Molecular Devices), acquired with pClamp 9.2. Recording electrodes (4-7MΩ) were filled with (mM): 110 Cs-Gluconate, 30 CsCl, 0.5 CaCl2, 10 Hepes, 4 Mg-ATP, 0.3 Na3-GTP and 10 BAPTA (pH adjusted to 7.3 with CsOH and osmolarity adjusted to 290-310 mOsm/kg with sucrose). After rupture on the side of HEK cell, GluR1-L497Y-meidated full activation was induced by the treatment of 1 mM glutamate. And then Gβγ on the side of astrocyte was injected with the rupture after 10 min later. This rupture induced both inward current on both recording between astrocyte and HEK cell expressing GluR1-L497Y.

[8] = target: T3, GNG4 (Homo sapiens, UniProt P50150); assay: Yeast two hybrid interaction of TREK-1 N-terminal segments with GNG4; assay type: binding
T3 construct: expressed in transfected cells; host or cells: yeast strain AH109
T3 sequence (P50150 1-75): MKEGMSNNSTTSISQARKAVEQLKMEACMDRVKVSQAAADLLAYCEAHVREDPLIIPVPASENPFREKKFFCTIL
Source text: The TREK-1-N 1-4 were ligated into pGBKT7 encoding for the GAL4 DNA binding domain (BD) and the gamma 4 was cloned into pGADT7 encoding for the activation domain (AD). To assess the protein-protein interaction between TREK-1-N and gamma 4, both BD/TREK-1-N and AD/gamma 4 were co-transformed into the yeast strain AH109. AH109 is unable to synthesize histidine. However, interaction between TREK1-N and gamma 4 enables the yeast to make the His3 enzyme, thereby permitting histidine biosynthesis and growth on His minimal medium.

[9] = system: TREK-1; assay: Gβγ-induced whole-cell current in cultured astrocytes; assay type: cell-based, mouse; settings: 6.09 nM Gβγ; for Gβγ-induced whole-cell current: competitive peptide in patch pipette; for Gβγ-induced conductance: 150 [Glu]in, gene silencing
Protocol: as §1
We then asked whether Gβγ can directly open any channels in cultured astrocytes. We performed whole-cell current recording with purified Gβγ in the patch-pipette according to the method of Experimentation 12. The results were shown in FIGS. 3d to 3f, FIG. 3i, and FIGS. 12d to 12f.

GluR1-L497Y, sequence (P42261 19-906 L497Y limits assumed): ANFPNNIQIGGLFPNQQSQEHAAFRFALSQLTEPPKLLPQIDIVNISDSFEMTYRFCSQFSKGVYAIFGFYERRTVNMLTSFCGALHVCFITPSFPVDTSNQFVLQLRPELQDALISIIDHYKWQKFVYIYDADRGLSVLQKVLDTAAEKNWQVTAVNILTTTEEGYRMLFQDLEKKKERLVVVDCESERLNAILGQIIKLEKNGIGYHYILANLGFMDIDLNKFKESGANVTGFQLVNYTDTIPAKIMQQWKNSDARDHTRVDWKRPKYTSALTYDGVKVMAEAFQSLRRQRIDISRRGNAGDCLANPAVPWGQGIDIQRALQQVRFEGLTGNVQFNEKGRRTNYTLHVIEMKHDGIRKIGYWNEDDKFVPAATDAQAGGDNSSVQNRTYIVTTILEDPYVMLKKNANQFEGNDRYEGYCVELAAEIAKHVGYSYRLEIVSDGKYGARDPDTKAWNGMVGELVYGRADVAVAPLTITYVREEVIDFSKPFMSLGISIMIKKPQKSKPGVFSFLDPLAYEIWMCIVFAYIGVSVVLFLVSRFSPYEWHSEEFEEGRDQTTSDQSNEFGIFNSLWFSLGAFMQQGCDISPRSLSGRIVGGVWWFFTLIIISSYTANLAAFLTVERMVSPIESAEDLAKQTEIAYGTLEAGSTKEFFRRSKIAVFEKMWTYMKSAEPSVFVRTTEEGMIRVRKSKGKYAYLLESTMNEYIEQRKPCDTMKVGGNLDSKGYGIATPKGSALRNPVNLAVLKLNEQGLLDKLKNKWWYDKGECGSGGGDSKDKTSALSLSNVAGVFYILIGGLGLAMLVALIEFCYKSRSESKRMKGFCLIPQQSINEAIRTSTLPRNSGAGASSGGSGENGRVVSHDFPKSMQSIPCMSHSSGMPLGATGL

Compound: CO/C1=C\C(C)=C\[C@@H](C)[C@@H](O)[C@@H](C)C/C(C)=C/C=C/[C@H](OC)[C@@H]([C@@H](C)[C@@H](O)[C@H](C)[C@@]2(O)C[C@@H](O)[C@H](C)[C@@H](C(C)C)O2)OC1=O [Bafilomycin A1]
- Ca2+-activated anion current [1]: inhibited
- fast and slow-modes of TFLLR-induced glutamate release (TFLLR-induced GluR1L497Y-mediated current) [2]: significantly reduction; also recorded: significantly reduced; also recorded: appeared to block
- 1 mM glutamate-induced GluR1L497Y-mediated current of sensor cell [3]: marked reduction
- GluR1LY-mediated Ca2+ transient evoked by 1 mM glutamate [3]: reduces
- surface expression of GluR1-L497Y in the sensor cell [3]: almost completely eliminated

Compound: [Ca+2] [Ca^2+]
- EC50 [4]: 150 nM

Compound: Cc1nc(N=Nc2ccc(S(=O)(=O)[O-])cc2S(=O)(=O)[O-])c(COP(=O)([O-])[O-])c(C=O)c1O.[Na+].[Na+].[Na+].[Na+] [PPADS, pyridoxal phosphate-6-azophenyl-2′,4′-disulfonic acid tetrasodium salt]
- TREK-1-mediated current [5]: inhibits
- fast-mode of TFLLR-induced glutamate release [2]: appeared to block
- 1 mM glutamate-induced GluR1L497Y-mediated current of sensor cell [3]: non-specific effect

Compound: O=C([O-])c1c(Cl)c(Cl)c(Cl)c(Cl)c1-c1c2cc(I)c(=O)c(I)c-2oc2c(I)c([O-])c(I)cc12.[Na+].[Na+] [Rose Bengal]
- glutamate release in response to mechanical stimulation [6]: inhibited
- fast and slow-modes of TFLLR-induced glutamate release (TFLLR-induced GluR1L497Y-mediated current) [2]: does not inhibit; also recorded: did not have any effect

Compound: AAPDLLDPKSA (Competitive peptides N1 of TREK-1)
- Gβγ-induced current in astrocyte [7]: significantly reduced
- Gβγ-induced glutamate release (sensor current) [7]: significantly reduced
- interaction with GNG4 [8]: strongly interacted
- Gβγ-induced whole-cell current [9]: significantly reduced; also recorded: almost inhibit

Compound: AQNSKPRLSFSS (Competitive peptides N2 of TREK-1)
- interaction with GNG4 [8]: strongly interacted
- Gβγ-induced whole-cell current [9]: significantly reduced

Compound: DSAINVMKWKT (Competitive peptides N4 of TREK-1)
- interaction with GNG4 [8]: strongly interacted
- Gβγ-induced whole-cell current [9]: significantly reduced

Compound: TREK-1-shRNA: shRNA for mouse TREK-1 targeted at nucleotides 1043 to 1063 (SEQ ID NO: 17), in pSicoR (guide GCGTGGAGATCTACGACAAGT)
- Gβγ-induced current in astrocyte [7]: abolished
- Gβγ-induced glutamate release (sensor current) [7]: abolished
- Gβγ-induced conductance [9]: eliminated
- Gβγ-induced conductance ([9]; listed as TREK-1 specific shRNA): almost completely removed
- fast-mode of TFLLR-induced glutamate release [2]: selectively eliminated
- slow-mode of TFLLR-induced glutamate release [2]: without affecting
